Measurements reported in US20240216458A1, “Composition for the prevention, improvement or treatment of allergic diseases comprising an extract of Cassia mimosoides L. as an active ingredient” (KOREA INSTITUTE OF SCIENCE AND TECHNOLOGY, priority 2022, published 2024).

Assays:
Assay type in all cases: cell-based, rat
Conditions in all cases: compound 20 μM
RBL-2H3 mast cells [1] = experiment: Secretion of allergens in mast cell granules (beta-hexosaminidase activity, degranulation) after DNP-BSA stimulation
Procedure: First, rat basophilic leukocyte (RBL-2H3, American Type Culture Collection, USA) mast cells were cultured in minimal medium containing antibiotics and 10% bovine serum. After culturing, the cells were collected with trypsin, placed in a 24-well microtiter plate at 2×10^5 cells/well, and cultured until they grew to 80% confluence. The medium was replaced with PIPES buffer (25 mM PIPES, PH 7.2, 159 mM NaCl, 5 mM KCl, 0.4 mM MgCl2, 1 mM CaCl2), 5.6 mM glucose, and 0.1% BSA) for the cultured cells, and then ethanol extract of Cassia mimosoides L. prepared in <Example 1> was added to concentrations of 20 μg/ml and 40 μg/ml, respectively, and cultured for 1 hour. […]
The degree of secretion of allergy-inducing substances was determined by measuring the activity of beta-hexosaminidase, a marker of degranulation secreted in the medium, and the activity of beta-hexosaminidase was determined as the amount of p-nitrophenol liberated from p-nitrophenyl-acetyl-β-D-glucosaminide (Funaba M. et al., Cell Biol. Int., 27:879-85, 2003). […]
The degree of allergen secretion was determined by measuring the activity of β-hexosaminidase, a marker of degranulation, which was secreted in the medium, and the activity of β-hexosaminidase was determined as the amount of p-nitrophenyl liberated from p-nitrophenyl-acetyl-β-D-glucosaminide (Funaba M. et al, Cell Biol. Int., 27:879-85, 2003). […]

RBL-2H3 mast cells [2] = experiment: Histamine production secreted by mast cells (EIA kit)
Procedure: (§1) First, RBL-2H3 mast cells were seeded at 2×10^5 cells/well in a 24-well microtiter plate containing Dulbecco's Modified Eagle's Media (DMEM) medium containing 2.5% fetal bovine serum, and cultured until they grew to 80% confluence. Afterwards, ethanol extract of Cassia mimosoides L. prepared in <Example 1> was added to serum-free DMEM medium at a concentration of 20 μg/ml and 40 μg/ml, respectively, and mast cells were cultured for 24 hours. After treating mast cells with DNP-BSA for 30 minutes, the cell culture fluid was collected, centrifuged, and only the supernatant was harvested. The amount of histamine in the supernatant was confirmed using an EIA kit (Bertin Pharma, France).
Mast cells were cultured in the same manner as in Example 3, and then treated with 17 compounds isolated in Example 12 at a concentration of 20 μM, respectively.

RBL-2H3 mast cells [3] = experiment: TNF-α production secreted by mast cells (ELISA)
Procedure: as §1, with “TNF-α” for “histamine”, “ELISA” for “EIA”, “(Invitrogen, USA).” for “(Bertin Pharma, France).”
Mast cells were cultured in the same manner as in Example 4, and then treated with 17 compounds isolated in Example 12 at a concentration of 20 μM, respectively.

RBL-2H3 mast cells [4] = experiment: Interleukin-4 production secreted by mast cells (ELISA)
Procedure: as §1, with “interleukin-4” for “histamine”, “ELISA” for “EIA”, “(Invitrogen, USA).” for “(Bertin Pharma, France).”
Mast cells were cultured in the same manner as in Example 5, and then treated with 17 compounds isolated in Example 12 at a concentration of 20 μM, respectively.

RBL-2H3 mast cells [5] = experiment: Prostaglandin E2 production secreted by mast cells (ELISA)
Procedure: as §1, with “prostaglandin E2” for “histamine”, “ELISA” for “EIA”, “(R&D systems, USA).” for “(Bertin Pharma, France).”
Mast cells were cultured in the same manner as in Example 6, and then treated with 17 compounds isolated in Example 12 at a concentration of 20 μM, respectively.

Oc1ccc2c(c1)OC(c1ccc(O)c(O)c1)C[C@H]2c1c(O)cc(O)c2c1OC(c1ccc(O)c(O)c1)[C@@H](O)C2 (stereo partly drawn) [KA-1, (2S)-3′,4′,7-trihydroxyflavan-(4 β - >8)-catechin]
excellent efficacy: mast cell degranulation (RBL-2H3 mast cells [1]) | production of histamine secreted by mast cells (RBL-2H3 mast cells [2]) | production of TNF-α secreted by mast cells (RBL-2H3 mast cells [3]) | production of interleukin-4 secreted by mast cells (RBL-2H3 mast cells [4]) | production of prostaglandin E2 secreted by mast cells (RBL-2H3 mast cells [5])

Oc1ccc2c(c1)OC(c1ccc(O)c(O)c1)CC2c1c(O)cc(O)c2c1OC(c1ccc(O)c(O)c1)[C@@H](O)C2 (stereo partly drawn) [KA-2, (2S)-3′,4′,7-trihydroxyflavan-(4 α - >8)-catechin]
excellent efficacy: mast cell degranulation (RBL-2H3 mast cells [1]) | production of histamine secreted by mast cells (RBL-2H3 mast cells [2]) | production of TNF-α secreted by mast cells (RBL-2H3 mast cells [3]) | production of interleukin-4 secreted by mast cells (RBL-2H3 mast cells [4]) | production of prostaglandin E2 secreted by mast cells (RBL-2H3 mast cells [5])
